Measured values as given in US20050020544A1, “Bicyclic CB2 cannabinoid receptor ligands” (priority 2002, published 2005).
Like-named read-outs stand apart in the source and are kept apart here.

What was measured:
[1] = system: IL-2 secretion from activated Jurkat cells; test: Inhibition of IL-2 in PMA/A23187 activated T cells (ELISA); type: cell-based, human; conditions: for IC50: 24 hours after stimulation, read-out: calculated IC50 IL-2 secretion; for reversal of IL-2 secretion inhibiting activity by antagonists: 0.5-5 μM of CB1 antagonist SR141716A or CB2 antagonist SR144528
Experimental: The technique used to quantify the amount of a given protein in a liquid sample, either tissue culture supernatant or body fluid, is based on Enzyme Linked ImmunoSorbent Assay (ELISA) methodology. Either commercially available or established in house, the assay is based on the capture of the protein of interest by specific antibodies bound to the bottom of an ELISA plate well. […] Again the unbound material is washed away, the samples are then incubated with the appropriate substrate yielding a calorimetric reaction. The reaction is stopped and reading is performed in a spectrophotometer at the appropriate wavelength. Samples are tested at least in duplicate and the appropriate standard curve, consisting of serial dilutions of the recombinant target protein, is incorporated on each plate. Concentration of the protein in the sample is calculated from the standard curve.
Jurkat cells (human acute lymphoma T-cell line; ATCC # TIB-152) are grown in RPMI 1640 medium with 2 mM L-glutamine adjusted to contain 1.5 g/L sodium bicarbonate, 4.5 g/L glucose, 10 mM HEPES, 1.0 mM sodium pyruvate, and 10% heat inactivated fetal bovine serum. Cells are grown in tissue culture flasks and seeded at appropriate density into 24 wells tissue culture plates. 2×10^6 cells in one milliliter are stimulated using 10 ng/ml of PMA (Sigma) and 1 μM A23187 calcium ionophore (Sigma). […] The controls and test compounds are added at indicated concentrations one hour before stimulation. Supernatant is collected 24 hours after stimulation and the levels of the inflammatory agent under study are measured in an ELISA assay as previously described. Inhibition is calculated versus vehicle treated cells.
The activation of the T cells is performed as previously described. The levels of IL-2 are measured in an ELISA assay as previously described. Inhibition is calculated versus vehicle treated cells.

[2] = target: T1, human CB1 receptor (Homo sapiens, UniProt P21554); test: biochemical; type: binding
T1 construct: purchased Perkin Elmer/NEN; host or cells: HEK-293 cells, stably transfected (membranes)
In short: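 Displacement of [3H]CP55940 from membranes of HEK-293 cells stably expressing human CB1, in 50 mM Tris-HCl, 2.5 mM EDTA, 5 mM MgCl2, 1 mg/ml BSA, pH 7.4, 0.1% DMSO; 1.5 h at 30° C, then filtration.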

[3] = target: human CB2 receptor (Homo sapiens, UniProt P34972); test: Adenylylcyclase assay: forskolin-activated cAMP in CB2 transfected HEK-293 cells; type: cell-based; conditions: for inhibition at 1 µM: HEK293, read-out: % inhibition at 1 μM
Experimental: Cannabinoids and derivatives bind to G-protein-coupled CB1 and CB2 receptors and exert their activity via the inhibition of adenylylcyclase activity. An adenylylcyclase assay forms a basis for the functional analysis of the compounds by determining their capacity to inhibit or promote forskolin-activated cAMP production. The assay is carried out according to Chin et al. (Chin, C. N. et al., J. Neurochem. 70: 366-73, 1998). Briefly, HEK-293 human kidney cells (ATCC#CRL-1573) stably transfected with either the human CB1 or CB2 receptor (cDNA) were grown in DMEM supplemented with 10% fetal calf serum, 1% Penicillin-Streptomycin and 2 mM L-glutamine. Cells were seeded in 24 wells plate at 5×10^4 cells/well and incubated for 48 hours. Medium was then removed and the adherent cells were washed with PBS. Two hundred μl of serum free medium supplemented with 0.2 mM Ro 20-1724, 0.25% BSA, and 20 mM HEPES was then added to each well. The cells were then activated with 1 μM forskolin in presence of the bicyclic test compounds in concentrations ranging from 10 pM up to 1 μM. The activated cells were then incubated at 37° C. for 20 minutes and the reaction terminated with 1.2 M HCl to a final concentration of 0.1 M. Cells were lyzed by freeze and thaw and the lysate was neutralized with 2 M HEPES, pH 7.5. cAMP was measured in 50 μl aliquots using the [^3H]-cAMP assay system (Amersham).
This experiment was first performed on CB2 receptor transfected cells.

[4] = CB2 receptor transfected HEK-293, 1 μM forskolin
[5] = CB2 receptor transfected HEK-293, 1 μM forskolin, read-out: IC50 inhibition of cAMP level
[6] = displacement of [3H]CP55940, hCB1 HEK-293 membranes, read-out: CB1 IC50

T1 sequence (P21554 whole entry): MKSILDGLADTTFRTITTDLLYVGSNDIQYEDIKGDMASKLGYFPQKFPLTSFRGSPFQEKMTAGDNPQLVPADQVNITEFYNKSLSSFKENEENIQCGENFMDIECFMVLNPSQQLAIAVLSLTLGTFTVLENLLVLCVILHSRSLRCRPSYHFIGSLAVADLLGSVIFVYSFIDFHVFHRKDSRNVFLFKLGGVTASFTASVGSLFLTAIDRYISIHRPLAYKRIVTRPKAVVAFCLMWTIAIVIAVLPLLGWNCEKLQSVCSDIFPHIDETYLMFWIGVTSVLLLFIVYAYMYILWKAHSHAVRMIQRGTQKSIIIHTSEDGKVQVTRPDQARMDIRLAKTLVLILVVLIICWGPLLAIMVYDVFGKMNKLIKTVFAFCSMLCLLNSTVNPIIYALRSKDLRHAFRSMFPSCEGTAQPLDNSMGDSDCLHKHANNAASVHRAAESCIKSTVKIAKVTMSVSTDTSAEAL
Chain of human CB2 receptor (P34972 whole entry): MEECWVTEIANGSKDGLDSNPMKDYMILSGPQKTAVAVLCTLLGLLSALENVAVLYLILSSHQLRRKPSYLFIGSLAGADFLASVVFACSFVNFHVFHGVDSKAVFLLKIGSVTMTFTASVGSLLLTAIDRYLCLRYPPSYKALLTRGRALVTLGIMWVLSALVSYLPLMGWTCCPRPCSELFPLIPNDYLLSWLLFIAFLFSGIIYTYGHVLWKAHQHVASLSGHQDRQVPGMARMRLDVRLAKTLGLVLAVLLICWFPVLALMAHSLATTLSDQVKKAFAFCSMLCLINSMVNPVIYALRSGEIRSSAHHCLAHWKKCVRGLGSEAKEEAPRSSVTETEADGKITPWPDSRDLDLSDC

SMILES	effect on IL-2 secretion ([1]; doses of up to 10 μM)	IC50 ([2]; CB1 IC50, displacement of [3H]CP55940, hCB1 HEK-293 membranes)	IC50 [1]	% inhibition at 1 μM [3, 4]	IC50 [3, 5]	IC50 [2, 6]	IC50 ([1]; Homo sapiens, Jurkat)	inhibition at 1 µM [3, 4]	reversal of IL-2 secretion inhibiting activity by antagonists [1]	IC50 [3]
CCCCCCC(C)(C)c1cc(OC)c(C2C=C(CO)C3CC2C3(C)C)c(OC)c1 (single isomer, unassigned; (+)) [HU-308, (+) {4-[4-(1,1-dimethylheptyl)-2,6-dimethoxy-phenyl]-6,6-dimethyl-bicyclo[3.1.1]hept-2-en-2-yl}-methanol, reference compound]	minimal effect	3600 nM								
CCCCC(C)(C)c1cc(O)c(C2CC(=O)C3CC2C3(C)C)c(OC(=O)CCC(=O)O)c1 (single isomer, unassigned; (-)) [Compound Y, (−)-4-{4-[1,1-Dimethyl-pentyl]-2-succinate-6-hydroxy-phenyl}-6,6-dimethyl-bicyclo[3.1.1]heptan-2-one]			9000 nM	60%	1.13 nM	315 nM				
CCCCCCC(C)(C)c1cc(O)c([C@H]2CC(=O)[C@H]3C[C@@H]2C3(C)C)c(OC(=O)CCC(=O)O)c1 [Compound R, (−)-4-{4-[1,1-Dimethyl-heptyl]-2-succinate-6-hydroxy-phenyl}-6,6-dimethyl-bicyclo[3.1.1]heptan-2-one]					0.47 nM	41 nM	9000 nM	64%		
CCCCC(C)(C)c1cc(O)c(C2CC(=O)C3CC2C3(C)C)c(O)c1 (single isomer, unassigned; (-)) [Compound L, (−)-4-[4(1,1-Dimethyl-pentyl)-2,6-dihydroxy-phenyl]-6,6-dimethyl-bicyclo[3.1.1]heptan-2-one]						446 nM	8000 nM	33%	not reversed by any of these antagonists	
CCCCCCC(C)(C)c1cc(O)c(C2CC(=O)C3CC2C3(C)C)c(O)c1 (single isomer, unassigned; (-)) [Compound A, (−)-4-[4-(1,1-Dimethyl-heptyl)2,6-dihydroxy-phenyl]-6,6-dimethyl-bicyclo[3.1.1)heptan-2-one]						27.6 nM	3000 nM	63%	not reversed by any of these antagonists	0.24 nM
